Read-outs that look alike come from different tables or passages of the source.
Legend:
[1] = test system: hormone-unresponsive metastatic prostate cancer; settings: intravenous infusion of DPPE over approximately one hour prior to cyclophosphamide; cited from earlier work
[2] = test system: intracellular histamine receptors; settings: cited from earlier work
[3] = test system: normal and malignant cells; settings: cited from earlier work
[4] = test system: MCF-7 breast cancer cells; settings: ER−/AEBS+ or ER+/AEBS+ cells; cited from earlier work
[5] = test system: breast cancer patients who relapsed following surgery; assay: Phase III clinical trial: DPPE and doxorubicin versus doxorubicin alone, survival analysis by subgroup; format: in vivo, human; settings: for median survival time (MST) / one year survival: duration 6-36 month, prior chemotherapy group (FIG. 27), DPPE added to doxorubicin versus doxorubicin alone; for 1 yr (one year survival) / MST (median survival time): only ER known
Protocol: Two arms of treatment were involved in this trial. Patients were randomly selected to participate in either arm. In one arm, patients were treated with DPPE and doxorubicin, in the other arm patients were treated with doxorubicin alone.
In the trial, patients were permitted to stay on doxorubicin for a maximum of about 7 cycles (5 months). […] DPPE was administered to patients in the amount of 6 mg/kg (or 240 mg/M^2) over 80 minutes, with the concurrent administration of doxorubicin over the last 20 minutes at a […] of 60-90 mg/M^2.
The patients in the trial were assigned to subgroups based on duration, i.e. the length of time between the initial diagnosis of breast cancer and the appearance of advanced disease. The subgroups were: (i) less than or equal to 6 months, (ii) between 6 months and 36 months and (iii) more than 36 months.
For this subgroup analysis, the 3 duration subgroups (<6 m, 6-36 m and >36 m) are further subdivided into groups of patients that (i) have undergone prior chemotherapy, and (ii) have not undergone prior chemotherapy.
For this analysis, the patients in the trial were divided into subgroups based on Eastern Cooperative Oncology Group (ECOG) Performance Status (PS).
In this example, the patients were divided into subgroups of those patients that originated from Eastern Europe and those that originated mainly from Western Europe and North America.

[6] = cited from earlier work
[7] = competition assays; cited from earlier work
[8] = Geographically restricted subset
[9] = Geographically restricted subset (Eastern Europe excluded)
[10] = duration <36 m, ER+ (known ER status)
[11] = duration <36 m, ER− (known ER status)
[12] = duration >36 M, ER+ (known ER status)
[13] = duration >36 m, ER− (known ER status)
[14] = response PD (progressive disease)

## CCN(CC)CCOc1ccc(Cc2ccccc2)cc1.Cl [DPPE, N,N-diethyl-2-[-4-(phenylmethyl)-phenoxy]ethanamine monohydrochloride]
[1]
  effect on anti-cancer activity and toxicity of cyclophosphamide: potentiate the anti-cancer activity and ameliorate the toxicity
[2]
  antagonism of intracellular histamine receptors: potent antagonist
[3]; animal model
  cell proliferation in vivo: inhibit normal cell proliferation while promoting malignant cell proliferation
[3]; tumour-bearing animals treated concurrently with DPPE
  interaction with doxorubicin (Adriamycin): act synergistically
[4]
  in vitro growth of MCF-7 breast cancer cells: inhibit
[5]; Geographically restricted subset, DPPE/DOX versus DOX
  Survival by response: PD, comparison of arms: DPPE a little better at first
[5]; duration 6-36 m, no prior chemotherapy group
  survival benefit from the addition of DPPE: little, if any, benefit
[5]
  median survival time (MST): > 17.5 months
  one year survival: under 70%
[5]; duration >36 m, prior and no prior chemotherapy subgroups
  survival benefit from the addition of DPPE: neither of the subgroups show any benefit
[6]; 4 mg/kg (160 mg/M^2) over 1 hour intravenously
  toxicity: non-toxic
[6]; 8 mg/M^2 over 24 to 72 hours
  clinical side effects: do not result in clinical side effects
[6]; 240 mg/M^2 over 1 hour
  toxicity: may result in CNS toxicity

## CCN(CC)CCOc1ccc(C(=O)c2ccc(F)cc2)cc1 [DFPE, N,N-diethyl-2-[4-(4′-fluorophenone)-phenoxy]ethanamine]
[7]
  potency compared to DPPE: greater potency

## COc1cccc2c1C(=O)c1c(O)c3c(c(O)c1C2=O)C[C@@](O)(C(=O)CO)C[C@@H]3O[C@H]1C[C@H](N)[C@H](O)[C@H](C)O1 [DOX, doxorubicin]
[5]; ECOG PS 0
  1 yr survival: 75%
  MST: 20.3 m
[5]; ECOG PS 1
  1 yr survival: 48%
  MST: 11.7 m
[5]; ECOG PS 2
  1 yr survival: 33%
  MST: 5.9 m
[5]; ER+ patients
  1 yr (one year survival): 62%
  MST (median survival time): 16.5 m
[5]; ER− patients
  1 yr (one year survival): 36%
  MST (median survival time): 9.5 m
[5]; [8]
  Survival by ECOG = 0, 1 yr: 63%
  Survival by ECOG = 0, MST: 16.5 m
  Survival by ECOG = 1, 1 yr: 42%
  Survival by ECOG = 1, MST: 11.5 m
  Survival by ER status ER−, 1 yr: 39%
  Survival by ER status ER−, MST: 9 m
  Survival by ER+, 1 yr: 55%
  Survival by ER+, MST: 15.5 m
  Survival by duration: 6-36 m, MST: 9 m
  Survival by response: CR/PR, 1 yr: 62%
  Survival by response: SD, 1 yr: 53%
  Survival by response: SD, MST: 12 m
  Survival for ER+ vs ER− within the arm: ER+ considerably better than ER−
[5]; [9]
  Overall survival 1 yr: 50%
  Overall survival MST: 12 m
[5]; Whole trial (Table 10)
  Overall survival 1 yr: 60%
  Overall survival MST: 15.6 m
  Survival by ECOG = 0, 1 yr: 75%
  Survival by ECOG = 0, MST: 20.3 m
  Survival by ECOG = 1, 1 yr: 48%
  Survival by ECOG = 1, MST: 11.7 m
  Survival by ER status ER−, 1 yr: 36%
  Survival by ER status ER−, MST: 9.5 m
  Survival by ER+, 1 yr: 62%
  Survival by ER+, MST: 16 m
  Survival by duration: 6-36 m, MST: 11.5 m
  Survival by response: CR/PR, 1 yr: 74%
  Survival by response: SD, 1 yr: 59%
  Survival by response: SD, MST: 17 m
  Survival for ER+ vs ER− within the arm: ER+ considerably better than ER−
[5]; all breast cancer patients of the trial
  lived on average (survival): fifteen
[5]
  median survival time (MST): 10.7 months
  one year survival: 40%
[5]; duration <6 m
  1 yr survival: 56%
  MST: 15 m
[5]; [10]
  1 yr survival: 52%
  MST: 15.5 m
[5]; [11]
  1 yr survival: 36%
  MST: 9.5 m
[5]; duration >6 but <36 m
  1 yr survival: 45%
  MST: 11.5 m
[5]; [12]
  1 yr survival: 82%
  MST: 18 m
[5]; duration >36 m
  1 yr survival: 77%
  MST: 20.3 m
[5]; [13]
  1 yr survival: 66%
  MST: 12 m
[5]; duration >36 months
  median survival time (FIG. 22): 28.6356
[5]; duration of ≦36 months
  median survival time (FIG. 21): 12.1973
[5]; response CR/PR
  1 yr survival: 74%
  MST: 28.5 m
[5]; [14]
  1 yr survival: 34%
  MST: 10.5 m
[5]; response SD (stable disease)
  1 yr survival: 59%
  MST: 17 m

— patent US20100144660A1, “USE OF N,N-DIETHYL-2-[-4-(PHENYLMETHYL)-PHENOXY]ETHANAMINE MONOHYDROCHLORIDE (DPPE) IN CANCER THEREAPY” (YM Biosciences Inc., priority 2001, published 2010)
